According to patent publication US12258422B2, “Cyclopeptide and method for preparing the same” (NATIONAL TSING HUA UNIVERSITY, priority 2020, dated 2025):
“And” between values parts separate entries of the source, which are not always exact repeats. Equal values may be shown once.

How the values were obtained:
MMP-1 = MMP-1 inhibition test: TNF-α-induced MMP-1 level in skin fibroblasts, ELISA; assay type: cell-based, human; details: for inhibition of MMP-1: compared to 3.3 μM of RA (set as 100%); for IC50: Hs68, TNF-α induced, calculated from inhibition rate vs concentration (FIG. 1, FIG. 2); for MMP-1 Conc.: TNF-α 20 ng/mL, Hs68
Experimental: Matrix Metalloproteinase-1 (MMP-1) is one of collagenases, and is involved in the degradation of the extracellular matrix (ECM). In details, fibroblasts result in the overexpression of MMP-1 after exposure to UV-containing sunlight, so that the ECM is then degraded by MMP-1.
To examine the effect of the cyclopeptide of the present disclosure, a series of MMP-1 inhibition test was conducted.
In this test, test compound and human fibroblasts were co-cultured, and cytokine tumor necrosis factor-α (TNF-α) was added as an inducer to induce the expression of MMP-1 to a high level. Then, the test compound was evaluated for the ability of reducing the MMP-1 level induced by TNF-α.
Test compound: cyclopeptide (III-3) of the present disclosure, in which Q is Cl.
Cell Line: Skin Fibroblast Hs68
First, the seeding of skin fibroblast Hs68 cells onto culture medium dish was conducted overnight, and then different concentrations (0.05 μM, 0.25 μM, 1.25 μM, 2.5 μM and 5 μM) of cyclopeptide (III-3) were added to the skin fibroblast cells for 6 hours, which was further incubated with TNF-α (20 ng/mL) for 42 hours.

hs68 human fibroblasts [1] = assay: Procollagen Type I C-Peptide (PIP) EIA, induction of procollagen secretion; assay type: cell-based
Text: (§1) Type I collagen is the primary component of the skin dermis. Both the quantity and quality of extracellular collagen are primarily related to skin ageing. The present embodiment was examined, by using Procollagen Type I C-Peptide (PIP) EIA Kit, effects of induction of procollagen secretion and cytotoxicity in respect of hs68 human fibroblasts.

[2] = Cytotoxicity (cell viability) in anti-aging evaluation; assay type: cell-based, human; details: human, hs68 human fibroblasts, (sample/control) × 100%
Text: as §1

hs68 human fibroblasts [3] = assay: as above; assay type: cell-based; details: TGFβ; (sample/control) × 100%
Text: as §1

## N=C(N)NCCC[C@@H]1NC(=O)C2(CCNCC2)NC(=O)[C@@H](Cc2ccccc2)NC(=O)[C@H](CC(=O)O)NC(=O)CNC1=O [III-1]
MMP-1; 0.05 μM
  inhibition of MMP-1: 12%
MMP-1; 0.25 μM
  inhibition of MMP-1: 38%
MMP-1; 1.25 μM
  inhibition of MMP-1: 90%
MMP-1
  IC50: 0.7 µM
MMP-1; cyclopeptide 0.05 μM
  MMP-1 Conc.: 422.3 pg/mL
MMP-1; cyclopeptide 0.25 μM
  MMP-1 Conc.: 378.2 pg/mL
MMP-1; cyclopeptide 1.25 μM
  MMP-1 Conc.: 288.0 pg/mL
MMP-1; cyclopeptide 2.5 μM
  MMP-1 Conc.: 271.8 pg/mL

## CC(C)[C@H]1CC[C@H](C)CC12NC(=O)[C@@H](Cc1ccccc1)NC(=O)[C@H](CC(=O)O)NC(=O)CNC(=O)[C@H](CCCNC(=N)N)NC2=O (stereo partly drawn) [III-3]
MMP-1; 0.05 μM
  inhibition of MMP-1: about 60%
MMP-1; 0.25 μM
  inhibition of MMP-1: about 80%
MMP-1; 1.25 μM
  inhibition of MMP-1: ~87%
MMP-1; 2.5 μM
  inhibition of MMP-1: ~91%
MMP-1
  IC50: 0.02 µM
MMP-1; cyclopeptide 0.05 μM
  MMP-1 Conc.: 337.8 pg/mL
MMP-1; cyclopeptide 0.25 μM
  MMP-1 Conc.: 244.2 pg/mL
MMP-1; cyclopeptide 1.25 μM
  MMP-1 Conc.: 212.7 pg/mL
MMP-1; cyclopeptide 2.5 μM
  MMP-1 Conc.: 194.2 pg/mL
MMP-1; cyclopeptide 5 μM
  MMP-1 Conc.: 168.6 pg/mL

## N=C(N)NCCC[C@@H]1NC(=O)C2(CCCCC2)NC(=O)[C@@H](Cc2ccccc2)NC(=O)[C@H](CC(=O)O)NC(=O)CNC1=O [III-5]
hs68 human fibroblasts [1]; cyclopeptide 0.0008 μM
  Procollagen Type I: 235 ng/mL
hs68 human fibroblasts [1]; cyclopeptide 0.004 μM
  Procollagen Type I: 225 ng/mL
hs68 human fibroblasts [1]; cyclopeptide 0.02 μM
  Procollagen Type I: 220 ng/mL
hs68 human fibroblasts [1]; cyclopeptide 0.1 μM
  Procollagen Type I: 208 ng/mL
hs68 human fibroblasts [1]; cyclopeptide 0.25 μM
  Procollagen Type I: 208 ng/mL
hs68 human fibroblasts [1]; cyclopeptide 0.5 μM
  Procollagen Type I: 184 ng/mL
[2]; cyclopeptide 0.0008 μM
  viability at 0.0008 µM: 92%
[2]; cyclopeptide 0.004 μM
  viability at 0.004 µM: 97%
[2]; cyclopeptide 0.02 μM
  viability at 0.02 µM: 100%
[2]; cyclopeptide 0.1 μM
  viability at 0.1 µM: 97%
[2]; cyclopeptide 0.25 μM
  viability at 0.25 µM: 99%
[2]; cyclopeptide 0.5 μM
  viability at 0.5 µM: 100%

## CC1=C(/C=C/C(C)=C/C=C/C(C)=C/C(=O)O)C(C)(C)CCC1 [RA, retinoic acid, reference compound]
MMP-1; RA 3.3 μM (positive control)
  MMP-1 Conc.: 155.9 pg/mL and 271.3 pg/mL

## TGFβ [reference compound]
hs68 human fibroblasts [1]; TGFβ 0.83 μM
  Procollagen Type I: 320 ng/mL
hs68 human fibroblasts [3]
  Cell viability: 95%
